Test results as given in patent publication US8101386B2, “Escherichia coli strains which over-produce L-threonine and processes for the production of L-threonine by fermentation” (Archer Daniels Midland Company, priority 2000, dated 2012).

Legend:
[1] = system: E. coli strain 6-8; experiment: CPCA resistance test: growth in minimal medium E with CPCA; format: cell-based; design: unit not given here; details: 24 hr, 36° C.
Procedure: (§1) To test for CPCA resistance, each strain was cultivated in 20 ml of the seed medium SM (32.5 g/L glucose; 1 g/L MgSO4 7H2O; 24.36 g/L K2HPO4; 9.52 g/L KH2PO4; 5 (NH4)2SO4; 15 g/L yeast extract; pH 7.2) at 36° C. for 17 hr with shaking. The cells were harvested and washed with minimal medium E. The cell suspension was then inoculated into a sterilized tube containing 3 ml of minimal medium E and 0, 0.1, 0.5, or 1 mM CPCA. After 24 hr cultivation as 36° C. with shaking, growth was determined by measuring the optical density at 660 nm. The results are shown below in Table 1 relative to growth in the absence of CPCA.

[2] = system: E. coli strain G909; experiment: as above; format: cell-based; details: 24 hr, 36° C.
Procedure: as §1

[3] = system: E. coli; details: G. Nass et al. 1969; cited from earlier work
[4] = biological target: threonyl tRNA-synthetase (Escherichia coli, UniProt P0A8M3); details: G. Nass et al. 1969; cited from earlier work
Chain of threonyl tRNA-synthetase (P0A8M3 whole entry): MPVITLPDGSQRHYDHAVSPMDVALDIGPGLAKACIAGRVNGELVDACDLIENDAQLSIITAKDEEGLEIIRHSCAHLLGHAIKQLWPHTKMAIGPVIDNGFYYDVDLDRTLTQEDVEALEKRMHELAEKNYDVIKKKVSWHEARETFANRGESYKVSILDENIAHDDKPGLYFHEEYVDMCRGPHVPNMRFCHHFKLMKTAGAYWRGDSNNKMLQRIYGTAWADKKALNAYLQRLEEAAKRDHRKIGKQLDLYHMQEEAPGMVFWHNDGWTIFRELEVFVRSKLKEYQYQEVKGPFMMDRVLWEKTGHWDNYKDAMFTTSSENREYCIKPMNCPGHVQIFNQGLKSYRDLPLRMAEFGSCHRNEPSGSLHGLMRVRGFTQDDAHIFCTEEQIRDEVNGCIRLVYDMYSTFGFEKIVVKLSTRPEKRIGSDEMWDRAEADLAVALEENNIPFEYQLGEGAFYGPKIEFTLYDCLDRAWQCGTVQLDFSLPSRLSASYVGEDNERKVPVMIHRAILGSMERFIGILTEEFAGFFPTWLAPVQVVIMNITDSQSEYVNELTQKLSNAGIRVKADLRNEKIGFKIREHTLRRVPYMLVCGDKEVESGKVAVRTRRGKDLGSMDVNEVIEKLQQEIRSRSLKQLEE

Question: Which “growth (optical density at 660 nm) relative to growth in the absence of CPCA” value ([1]; 0.1 mM CPCA) does the source give for `O=C(O)C1CCCC1` [CPCA, cyclopentanecarboxylic acid] here?
Answer: The value was 134.5.

Question: What about the “growth (optical density at 660 nm) relative to growth in the absence of CPCA” value ([1]; 0.5 mM CPCA) of the same compound?
Answer: Its value is 141.0.

Question: And the “growth (optical density at 660 nm) relative to growth in the absence of CPCA” value ([1]; 1 mM CPCA)?
Answer: Its value is 184.5.

Question: What about the “growth (optical density at 660 nm) relative to growth in the absence of CPCA” value ([2]; 0.1 mM CPCA) of the same compound?
Answer: Its value is 24.2.

Question: What about the “growth (optical density at 660 nm) relative to growth in the absence of CPCA” value ([2]; 0.5 mM CPCA) of the same compound?
Answer: Its value is 2.9.

Question: And the “growth (optical density at 660 nm) relative to growth in the absence of CPCA” value ([2]; 1 mM CPCA)?
Answer: Its value is 0.9.

Question: What does the source list for `C[C@@H]1C[C@H](C)C[C@H](C)[C@@H](O)CC(=O)O[C@H]([C@@H]2CCC[C@H]2C(=O)O)C/C=C/C=C(/C#N)[C@H](O)[C@@H](C)C1` [borrelidin]?
Answer: effect on growth of E. coli [3]: inhibit the growth; effect on enzymatic activity of threonyl tRNA-synthetase [4]: reduce the enzymatic activity
